Test results from PubChem BioAssay (NCI).
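Five compound concentrations were applied to cells in 96-well plates for 48 hours; endpoints were derived by simple linear interpolation of the resulting dose-response curve. TGI: total growth inhibition.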

How the values were obtained:
Assay in all cases: DTP human tumour cell line panel, 48 h
[1] = tested on: 786-0 renal
[2] = tested on: A498 renal
[3] = tested on: A549 NSCLC
[4] = tested on: ACHN renal
[5] = tested on: CCRF-CEM leukemia
[6] = tested on: COLO 205 colon
[7] = tested on: DLD-1 colon
[8] = tested on: DMS 114 small cell lung
[9] = tested on: DMS 273 small cell lung
[10] = tested on: EKVX NSCLC
[11] = tested on: HCC-2998 colon
[12] = tested on: HCT-116 colon
[13] = tested on: HCT-15 colon
[14] = tested on: HL-60(TB) leukemia
[15] = tested on: HOP-62 NSCLC
[16] = tested on: HT29 colon
[17] = tested on: IGROV1 ovarian
[18] = tested on: K-562 leukemia
[19] = tested on: KM20L2 colon
[20] = tested on: LOX IMVI melanoma
[21] = tested on: LXFL 529 NSCLC
[22] = tested on: M14 melanoma
[23] = tested on: M19-MEL melanoma
[24] = tested on: MALME-3M melanoma
[25] = tested on: MOLT-4 leukemia
[26] = tested on: NCI-H226 lung
[27] = tested on: NCI-H23 lung
[28] = tested on: NCI-H460 lung
[29] = tested on: OVCAR-3 ovarian
[30] = tested on: OVCAR-4 ovarian
[31] = tested on: OVCAR-8 ovarian
[32] = tested on: RPMI-8226 leukemia
[33] = tested on: RXF 393 renal
[34] = tested on: RXF-631 renal
[35] = tested on: SF-268 CNS
[36] = tested on: SF-295 CNS
[37] = tested on: SF-539 CNS
[38] = tested on: SK-MEL-2 melanoma
[39] = tested on: SK-MEL-28 melanoma
[40] = tested on: SK-MEL-5 melanoma
[41] = tested on: SN12C renal
[42] = tested on: SNB-19 CNS
[43] = tested on: SNB-75 CNS
[44] = tested on: SR leukemia
[45] = tested on: SW-620 colon
[46] = tested on: TK-10 renal
[47] = tested on: U251 CNS
[48] = tested on: UACC-257 melanoma
[49] = tested on: UACC-62 melanoma
[50] = tested on: UO-31 renal
[51] = tested on: XF 498 CNS
[52] = tested on: CAKI-1 renal
[53] = tested on: HOP-18 NSCLC
[54] = tested on: HOP-92 NSCLC
[55] = tested on: KM12 colon
[56] = tested on: NCI-H522 lung
[57] = tested on: OVCAR-5 ovarian
[58] = tested on: SK-OV-3 ovarian
[59] = tested on: SNB-78 CNS

Q: `CC(C)(C)c1cc(N=NC(=S)NCc2ccccc2)cc(C(C)(C)C)c1O` was tested. Which TGI [1] did it give?
A: > 100 µM

Q: What about the TGI [2] of the same compound?
A: > 100 µM

Q: What about the TGI [3] of the same compound?
A: > 100 µM

Q: And the TGI [4]?
A: > 100 µM

Q: And the TGI [5]?
A: > 100 µM

Q: What about the TGI [6] of the same compound?
A: > 100 µM

Q: What about the TGI [7] of the same compound?
A: > 100 µM

Q: What about the TGI [8] of the same compound?
A: > 100 µM

Q: What about the TGI [9] of the same compound?
A: > 100 µM

Q: And the TGI [10]?
A: > 100 µM

Q: And the TGI [11]?
A: > 100 µM

Q: And the TGI [12]?
A: > 100 µM

Q: And the TGI [13]?
A: > 100 µM

Q: And the TGI [14]?
A: > 100 µM

Q: What about the TGI [15] of the same compound?
A: > 100 µM

Q: And the TGI [16]?
A: > 100 µM

Q: And the TGI [17]?
A: > 100 µM

Q: And the TGI [18]?
A: > 100 µM

Q: What about the TGI [19] of the same compound?
A: > 100 µM

Q: What about the TGI [20] of the same compound?
A: > 100 µM

Q: What about the TGI [21] of the same compound?
A: > 100 µM

Q: What about the TGI [22] of the same compound?
A: > 100 µM

Q: What about the TGI [23] of the same compound?
A: > 100 µM

Q: What about the TGI [24] of the same compound?
A: > 100 µM

Q: What about the TGI [25] of the same compound?
A: > 100 µM

Q: And the TGI [26]?
A: > 100 µM

Q: And the TGI [27]?
A: > 100 µM

Q: And the TGI [28]?
A: > 100 µM

Q: What about the TGI [29] of the same compound?
A: > 100 µM

Q: And the TGI [30]?
A: > 100 µM

Q: And the TGI [31]?
A: > 100 µM

Q: What about the TGI [32] of the same compound?
A: > 100 µM

Q: And the TGI [33]?
A: > 100 µM

Q: What about the TGI [34] of the same compound?
A: > 100 µM

Q: And the TGI [35]?
A: > 100 µM

Q: What about the TGI [36] of the same compound?
A: > 100 µM

Q: And the TGI [37]?
A: > 100 µM

Q: What about the TGI [38] of the same compound?
A: > 100 µM

Q: What about the TGI [39] of the same compound?
A: > 100 µM

Q: And the TGI [40]?
A: > 100 µM

Q: What about the TGI [41] of the same compound?
A: > 100 µM

Q: What about the TGI [42] of the same compound?
A: > 100 µM

Q: What about the TGI [43] of the same compound?
A: 99.6 µM

Q: What about the TGI [44] of the same compound?
A: > 100 µM

Q: What about the TGI [45] of the same compound?
A: > 100 µM

Q: What about the TGI [46] of the same compound?
A: > 100 µM

Q: And the TGI [47]?
A: > 100 µM

Q: And the TGI [48]?
A: > 100 µM

Q: What about the TGI [49] of the same compound?
A: > 100 µM

Q: What about the TGI [50] of the same compound?
A: > 100 µM

Q: And the TGI [51]?
A: > 100 µM

Q: Which TGI [1] does the source give for `c1cc2[se][se]c3c4cccc5[se][se]c(c(c1)c23)c54` here?
A: > 100 µM

Q: And the TGI [2]?
A: > 100 µM

Q: And the TGI [3]?
A: > 100 µM

Q: What about the TGI [4] of the same compound?
A: > 100 µM

Q: And the TGI [52]?
A: > 100 µM

Q: And the TGI [5]?
A: > 100 µM

Q: And the TGI [6]?
A: > 100 µM

Q: And the TGI [7]?
A: > 100 µM

Q: What about the TGI [8] of the same compound?
A: > 100 µM

Q: And the TGI [9]?
A: > 100 µM

Q: And the TGI [12]?
A: > 100 µM

Q: What about the TGI [14] of the same compound?
A: > 100 µM

Q: What about the TGI [53] of the same compound?
A: > 100 µM

Q: What about the TGI [15] of the same compound?
A: > 100 µM

Q: And the TGI [54]?
A: > 100 µM

Q: What about the TGI [16] of the same compound?
A: > 100 µM

Q: What about the TGI [17] of the same compound?
A: > 100 µM

Q: And the TGI [18]?
A: > 100 µM

Q: What about the TGI [55] of the same compound?
A: > 100 µM

Q: What about the TGI [19] of the same compound?
A: > 100 µM

Q: And the TGI [20]?
A: > 100 µM

Q: What about the TGI [21] of the same compound?
A: > 100 µM

Q: And the TGI [22]?
A: > 100 µM

Q: And the TGI [23]?
A: > 100 µM

Q: And the TGI [24]?
A: > 100 µM

Q: And the TGI [25]?
A: > 100 µM

Q: And the TGI [26]?
A: > 100 µM

Q: And the TGI [27]?
A: > 100 µM

Q: What about the TGI [28] of the same compound?
A: > 100 µM

Q: What about the TGI [56] of the same compound?
A: > 100 µM

Q: What about the TGI [29] of the same compound?
A: > 100 µM

Q: And the TGI [30]?
A: > 100 µM

Q: And the TGI [57]?
A: > 100 µM

Q: And the TGI [31]?
A: > 100 µM

Q: What about the TGI [32] of the same compound?
A: > 100 µM

Q: What about the TGI [33] of the same compound?
A: > 100 µM

Q: What about the TGI [35] of the same compound?
A: > 100 µM

Q: And the TGI [36]?
A: > 100 µM

Q: What about the TGI [37] of the same compound?
A: > 100 µM

Q: And the TGI [38]?
A: > 100 µM

Q: And the TGI [39]?
A: > 100 µM

Q: What about the TGI [40] of the same compound?
A: > 100 µM

Q: And the TGI [58]?
A: > 100 µM

Q: What about the TGI [41] of the same compound?
A: > 100 µM

Q: What about the TGI [42] of the same compound?
A: > 100 µM

Q: What about the TGI [43] of the same compound?
A: > 100 µM

Q: And the TGI [59]?
A: > 100 µM

Q: And the TGI [44]?
A: > 100 µM

Q: What about the TGI [45] of the same compound?
A: > 100 µM

Q: And the TGI [46]?
A: > 100 µM

Q: And the TGI [47]?
A: > 100 µM

Q: What about the TGI [48] of the same compound?
A: > 100 µM

Q: What about the TGI [49] of the same compound?
A: > 100 µM

Q: And the TGI [50]?
A: > 100 µM

Q: What about the TGI [51] of the same compound?
A: > 100 µM
